These results are taken from PubChem BioAssay (NCI).

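These data come from cells grown in 96-well plates and exposed to compound for 48 hours at five concentrations. TGI is the concentration that stops growth completely.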

Among the test systems are HCT-116 colon; HCT-15 colon; MALME-3M melanoma; NCI-H460 lung; OVCAR-3 ovarian; OVCAR-5 ovarian; SK-MEL-5 melanoma; U251 CNS; UO-31 renal; HT29 colon.
Assay in all cases: NCI anticancer screen, dose series, 48 h

Consider `Nc1nc(SCc2ccccc2Cl)c2[nH]cnc2n1`, for which the TGI in the experiment with HCT-116 colon, in the experiment on HCT-15 colon, in the experiment with MALME-3M melanoma, in the experiment on NCI-H460 lung, with OVCAR-3 ovarian and in the experiment on OVCAR-5 ovarian was > 100 µM throughout. In addition, the TGI in the experiment with SK-MEL-5 melanoma, in the experiment with U251 CNS and with UO-31 renal was > 100 µM throughout.
On to `CCC(=O)OCN(C)c1nc(N(C)COC(=O)CC)nc(N(C)COC(=O)CC)n1`, for which the TGI was 64 µM with HCT-116 colon; 56 µM in the experiment on HCT-15 colon; 98.3 µM in the experiment on HT29 colon; > 100 µM in the experiment with MALME-3M melanoma; > 100 µM in the experiment on NCI-H460 lung; > 100 µM in the experiment with OVCAR-3 ovarian. Moreover, the TGI in the experiment with OVCAR-5 ovarian was > 100 µM; with SK-MEL-5 melanoma, 52.5 µM; in the experiment on U251 CNS, > 100 µM; in the experiment on UO-31 renal, > 100 µM.
For `Cc1c2ccc3ccccc3c2c[n+]2ccccc12`, the TGI in the experiment with HCT-116 colon is > 83.3 µM; with HCT-15 colon, > 100 µM; in the experiment on HT29 colon, > 100 µM; with MALME-3M melanoma, 3.77 µM; in the experiment with NCI-H460 lung, 40.2 µM; with OVCAR-3 ovarian, 35.4 µM. Also, the TGI in the experiment with OVCAR-5 ovarian is > 100 µM; with SK-MEL-5 melanoma, 21.9 µM; in the experiment with U251 CNS, 15.6 µM; in the experiment on UO-31 renal, 60.6 µM.
Consider `CCCC(=O)[O-].CCCC(=O)[O-].NCCN.NCCN.[Co+3].[O-][Cl+3]([O-])([O-])[O-]`, for which the TGI with HCT-116 colon, with HCT-15 colon, in the experiment with HT29 colon, in the experiment with MALME-3M melanoma, with NCI-H460 lung and with OVCAR-3 ovarian was > 100 µM in each case. Moreover, the TGI with OVCAR-5 ovarian, in the experiment with SK-MEL-5 melanoma, in the experiment with U251 CNS and in the experiment on UO-31 renal was > 100 µM in each case.
For the compound `CCCO[C@@H]1[C@@H](OC(C)=O)[C@@H](OC(C)=O)C(C)(C)/C=C/[C@H](C)C(=O)[C@@]2(OC(C)=O)C[C@@](C)(OC(C)=O)[C@H](OC(C)=O)[C@@H]2[C@H]2OC(=O)CC[C@@]12OC(=O)c1ccccc1`, the TGI in the experiment on HCT-116 colon, in the experiment with HCT-15 colon, in the experiment on HT29 colon, in the experiment on MALME-3M melanoma, in the experiment on NCI-H460 lung and in the experiment with OVCAR-3 ovarian was > 25 µM throughout. Also, the TGI in the experiment with OVCAR-5 ovarian, in the experiment on SK-MEL-5 melanoma, with U251 CNS and in the experiment with UO-31 renal was > 25 µM throughout.
Take `CNC(C)C(O)c1ccc2oc3cc(=O)c4ccccc4c-3nc2c1` (stereo not drawn): the TGI in the experiment with HCT-116 colon was 21.8 µM; with HCT-15 colon, > 100 µM; in the experiment with HT29 colon it was > 100 µM; in the experiment on MALME-3M melanoma, 19.9 µM; in the experiment on NCI-H460 lung, 61.4 µM; with OVCAR-3 ovarian, 28.7 µM. Further, the TGI in the experiment on OVCAR-5 ovarian was > 100 µM; in the experiment with SK-MEL-5 melanoma it was 6.68 µM; with U251 CNS, 22.4 µM; with UO-31 renal, 67 µM.
As to `N[C@H](Cc1ccc2oc3cc(=O)c4ccccc4c-3nc2c1)C(=O)O`, the TGI with HCT-116 colon was > 100 µM; in the experiment with HCT-15 colon it was > 100 µM; in the experiment with HT29 colon it was > 100 µM; with MALME-3M melanoma it was 38.5 µM; in the experiment on NCI-H460 lung, > 100 µM; in the experiment with OVCAR-3 ovarian, > 100 µM. Further, the TGI with OVCAR-5 ovarian is > 100 µM; with SK-MEL-5 melanoma, 41.1 µM; in the experiment on U251 CNS, > 100 µM; in the experiment on UO-31 renal, > 100 µM.
With `O=C1c2ccccc2OCC12OC21C=CC(Cl)=CC1` (stereo not drawn), the TGI in the experiment on HCT-116 colon is 43.6 µM; in the experiment on HCT-15 colon it was 86.5 µM; with HT29 colon, 36.5 µM; in the experiment with MALME-3M melanoma, 44.8 µM; in the experiment on NCI-H460 lung, 47.9 µM; in the experiment with OVCAR-3 ovarian, 42.1 µM. The TGI in the experiment on OVCAR-5 ovarian amounted to 81.3 µM; in the experiment on SK-MEL-5 melanoma it was 28.3 µM; in the experiment on U251 CNS, 44.4 µM; with UO-31 renal it was 65.1 µM.
Turning to `N#Cc1cc2c(cc1Cl)Sc1nnc(Nc3ccccc3)n1S2(=O)=O`, the TGI came out at 4 µM with HCT-116 colon; 5.61 µM with HCT-15 colon; 6.91 µM in the experiment with HT29 colon; 5 µM in the experiment with MALME-3M melanoma; 9.22 µM in the experiment with NCI-H460 lung; 3.82 µM with OVCAR-3 ovarian. Moreover, the TGI is 3.8 µM with OVCAR-5 ovarian, 6.84 µM in the experiment with SK-MEL-5 melanoma, 3.6 µM with U251 CNS and 3.89 µM in the experiment on UO-31 renal.
Consider `CCCn1cnc2c(SCc3ccc(Cl)cc3)nc(N)nc21`, for which the TGI is 44.2 µM with HCT-116 colon; > 100 µM in the experiment on HCT-15 colon; 43.5 µM with HT29 colon; 65.8 µM with MALME-3M melanoma; 40.6 µM in the experiment on NCI-H460 lung; 41.3 µM in the experiment on OVCAR-3 ovarian. Further, the TGI was > 100 µM in the experiment with OVCAR-5 ovarian, 33.4 µM with SK-MEL-5 melanoma, 74.5 µM in the experiment with U251 CNS and > 100 µM in the experiment with UO-31 renal.
Consider `C/C(=N\NC(=S)N1CCCC1)c1nc2ncccc2[nH]1`, for which the TGI with HCT-116 colon was 18.1 µM; with HCT-15 colon it was > 100 µM; in the experiment on HT29 colon, 20.2 µM; in the experiment with MALME-3M melanoma, 63.9 µM; with NCI-H460 lung, 1.68 µM; in the experiment with OVCAR-3 ovarian it was > 100 µM. In addition, the TGI in the experiment with OVCAR-5 ovarian is 20.7 µM; in the experiment with SK-MEL-5 melanoma, 2.93 µM; in the experiment with U251 CNS it was 13.5 µM; in the experiment with UO-31 renal it was 0.492 µM.
`Cc1ccc(CSC(N)=Nc2ccccc2)cc1C`: the TGI in the experiment with HCT-116 colon stood at 32.1 µM; with HCT-15 colon it was 60.1 µM; with HT29 colon, 40.1 µM; with MALME-3M melanoma, 34.2 µM; in the experiment with NCI-H460 lung, 39 µM; in the experiment with OVCAR-3 ovarian, 44 µM. Also, the results for the TGI in the experiment with OVCAR-5 ovarian, in the experiment with SK-MEL-5 melanoma and in the experiment with U251 CNS were 56.4 µM, 34.9 µM and 31.6 µM, respectively.
